Measurements from US12435044B2, “Pyridazinone herbicides and pyridazinone intermediates used to prepare a herbicide” (FMC Corporation, priority 2018, dated 2025).

Columns and labels:
Experiment in all cases: Test I pre-/postemergence, mixtures of Cpd. No. 20 with saflufenacil or pyroxasulfone
Type in all cases: in vivo
[1] = test system: common ragweed (AMBEL; Ambrosia artemisiifolia); conditions: for Plant response rating (0 to 100 scale): AMBEL
Source text: (§1) This test evaluated the effect of mixtures of Cpd. No. 20 with saflufenacil or pyroxasulfone on several plant species. Seeds of plant species selected from corn (ZEAMD; Zea mays, cv. ‘Pioneer 1184’), soybean (GLXMA; Glycine max, cv. Pioneer 35T58), giant foxtail (SETFA; Setaria faberi), palmer amaranth (AMAPA; Amaranthus palmeri), common waterhemp (AMATU; Amaranthus rudis), mare's tail (ERICA; Conyza canadensis), and common ragweed (AMBEL; Ambrosia artemisiifolia) were planted in pots containing Tama Silt Loam soil and treated preemergence with a directed soil spray using test chemicals formulated in a non-phytotoxic solvent mixture which included a surfactant.
(§2) At the same time, plants selected from these crop and weed species were planted in pots containing Redi-Earth® planting medium (Scotts Company, 14111 Scottslawn Road, Marysville, Ohio 43041) comprising spaghnum peat moss, vermiculite, wetting agent and starter nutrients and treated postemergence with test chemicals formulated in the same manner. Plants ranged in height from 2 to 10 cm and were in the one- to two-leaf stage for the postemergence treatment. Treated plants and untreated controls were maintained in a greenhouse for approximately 14-21 d, after which time all treated plants were compared to untreated controls and visually evaluated for injury. Plant response ratings, summarized in Tables 11 to 14, are based on a 0 to 100 scale where 0 is no effect and 100 is complete control. A dash (-) response means no test result. Test results are presented as a mean of 4 reps.

[2] = test system: common waterhemp (AMATU; Amaranthus rudis); conditions: for Plant response rating (0 to 100 scale): AMATU
Source text: as §1, §2

[3] = test system: corn (ZEAMD; Zea mays, cv. ‘Pioneer 1184’); conditions: for Plant response rating (0 to 100 scale): ZEAMD
Source text: as §1, §2

[4] = test system: giant foxtail (SETFA; Setaria faberi); conditions: for Plant response rating (0 to 100 scale): SETFA
Source text: as §1, §2

[5] = test system: mare's tail (ERICA; Conyza canadensis); conditions: for Plant response rating (0 to 100 scale): Preemergence, ERICA
Source text: as §1, §2

[6] = test system: palmer amaranth (AMAPA; Amaranthus palmeri); conditions: for Plant response rating (0 to 100 scale): AMAPA
Source text: as §1, §2

[7] = test system: soybean (GLXMA; Glycine max, cv. Pioneer 35T58); conditions: for Plant response rating (0 to 100 scale): GLXMA
Source text: as §1, §2

[8] = Preemergence, Cpd. No. 20 8 g a.i./ha alone
[9] = preemergence, Cpd. No. 20 16 g a.i./ha alone
[10] = preemergence, Cpd. No. 20 31 g a.i./ha alone
[11] = preemergence, Cpd. No. 20 62 g a.i./ha alone

Cc1ccc2ccc(C)c(-c3c(O)c(Cl)nn(C)c3=O)c2c1 [Cpd. No. 20, 6-chloro-4-(2,7-dimethyl-1-naphthalenyl)-5-hydroxy-2-methyl-3(2H)-pyridazinone]
Plant response rating (0 to 100 scale) [1, 8]: 0 | AMBEL plant response rating, 0 to 100 scale ([1]; postemergence, 8 g a.i./ha): 86 | AMBEL plant response rating, 0 to 100 scale ([1]; postemergence, 16 g a.i./ha): 90 | AMBEL plant response rating, 0 to 100 scale ([1]; postemergence, 31 g a.i./ha): 100 | AMBEL plant response rating, 0 to 100 scale ([1]; postemergence, 62 g a.i./ha): 94 | AMBEL plant response rating, 0 to 100 scale ([1]; preemergence, 8 g a.i./ha): 0 | AMBEL plant response rating, 0 to 100 scale ([1]; preemergence, 16 g a.i./ha): 10 | AMBEL plant response rating, 0 to 100 scale ([1]; preemergence, 31 g a.i./ha): 69 | AMBEL plant response rating, 0 to 100 scale ([1]; preemergence, 62 g a.i./ha): 98 | Plant response rating (0 to 100 scale) [1, 9]: 10 | Plant response rating (0 to 100 scale) [1, 10]: 69 | Plant response rating (0 to 100 scale) [1, 11]: 98 | Plant response rating (0 to 100 scale) [2, 8]: 0 | AMATU plant response rating, 0 to 100 scale ([2]; postemergence, 8 g a.i./ha): 50 | AMATU plant response rating, 0 to 100 scale ([2]; postemergence, 16 g a.i./ha): 59 | AMATU plant response rating, 0 to 100 scale ([2]; postemergence, 31 g a.i./ha): 81 | AMATU plant response rating, 0 to 100 scale ([2]; postemergence, 62 g a.i./ha): 83 | AMATU plant response rating, 0 to 100 scale ([2]; preemergence, 8 g a.i./ha): 0 | AMATU plant response rating, 0 to 100 scale ([2]; preemergence, 16 g a.i./ha): 0 | AMATU plant response rating, 0 to 100 scale ([2]; preemergence, 31 g a.i./ha): 0 | AMATU plant response rating, 0 to 100 scale ([2]; preemergence, 62 g a.i./ha): 80 | Plant response rating (0 to 100 scale) [2, 9]: 0 | Plant response rating (0 to 100 scale) [2, 10]: 0 | Plant response rating (0 to 100 scale) [2, 11]: 80 | Plant response rating (0 to 100 scale) [3, 8]: 0 | ZEAMD plant response rating, 0 to 100 scale ([3]; postemergence, 8 g a.i./ha): 0 | ZEAMD plant response rating, 0 to 100 scale ([3]; postemergence, 16 g a.i./ha): 0 | ZEAMD plant response rating, 0 to 100 scale ([3]; postemergence, 31 g a.i./ha): 0 | ZEAMD plant response rating, 0 to 100 scale ([3]; postemergence, 62 g a.i./ha): 0 | ZEAMD plant response rating, 0 to 100 scale ([3]; preemergence, 8 g a.i./ha): 0 | ZEAMD plant response rating, 0 to 100 scale ([3]; preemergence, 16 g a.i./ha): 0 | ZEAMD plant response rating, 0 to 100 scale ([3]; preemergence, 31 g a.i./ha): 0 | ZEAMD plant response rating, 0 to 100 scale ([3]; preemergence, 62 g a.i./ha): 0 | Plant response rating (0 to 100 scale) [3, 9]: 0 | Plant response rating (0 to 100 scale) [3, 10]: 0 | Plant response rating (0 to 100 scale) [3, 11]: 0 | Plant response rating (0 to 100 scale) [4, 8]: 25 | SETFA plant response rating, 0 to 100 scale ([4]; postemergence, 8 g a.i./ha): 55 | SETFA plant response rating, 0 to 100 scale ([4]; postemergence, 16 g a.i./ha): 80 | SETFA plant response rating, 0 to 100 scale ([4]; postemergence, 31 g a.i./ha): 76 | SETFA plant response rating, 0 to 100 scale ([4]; postemergence, 62 g a.i./ha): 78 | SETFA plant response rating, 0 to 100 scale ([4]; preemergence, 8 g a.i./ha): 25 | SETFA plant response rating, 0 to 100 scale ([4]; preemergence, 16 g a.i./ha): 39 | SETFA plant response rating, 0 to 100 scale ([4]; preemergence, 31 g a.i./ha): 84 | SETFA plant response rating, 0 to 100 scale ([4]; preemergence, 62 g a.i./ha): 99 | Plant response rating (0 to 100 scale) [4, 9]: 39 | Plant response rating (0 to 100 scale) [4, 10]: 84 | Plant response rating (0 to 100 scale) [4, 11]: 99 | Plant response rating (0 to 100 scale) ([5]; Cpd. No. 20 8 g a.i./ha alone): 93 | Plant response rating (0 to 100 scale) ([5]; Cpd. No. 20 16 g a.i./ha alone): 100 | Plant response rating (0 to 100 scale) ([5]; Cpd. No. 20 31 g a.i./ha alone): 100 | Plant response rating (0 to 100 scale) ([5]; Cpd. No. 20 62 g a.i./ha alone): 100 | ERICA plant response rating, 0 to 100 scale ([5]; postemergence, 8 g a.i./ha): 85 | ERICA plant response rating, 0 to 100 scale ([5]; postemergence, 16 g a.i./ha): 86 | ERICA plant response rating, 0 to 100 scale ([5]; postemergence, 31 g a.i./ha): 90 | ERICA plant response rating, 0 to 100 scale ([5]; postemergence, 62 g a.i./ha): 90 | ERICA plant response rating, 0 to 100 scale ([5]; preemergence, 8 g a.i./ha): 93 | ERICA plant response rating, 0 to 100 scale ([5]; preemergence, 16 g a.i./ha): 100 | ERICA plant response rating, 0 to 100 scale ([5]; preemergence, 31 g a.i./ha): 100 | ERICA plant response rating, 0 to 100 scale ([5]; preemergence, 62 g a.i./ha): 100 | Plant response rating (0 to 100 scale) [6, 8]: 23 | AMAPA plant response rating, 0 to 100 scale ([6]; postemergence, 8 g a.i./ha): 38 | AMAPA plant response rating, 0 to 100 scale ([6]; postemergence, 16 g a.i./ha): 40 | AMAPA plant response rating, 0 to 100 scale ([6]; postemergence, 31 g a.i./ha): 50 | AMAPA plant response rating, 0 to 100 scale ([6]; postemergence, 62 g a.i./ha): 65 | AMAPA plant response rating, 0 to 100 scale ([6]; preemergence, 8 g a.i./ha): 23 | AMAPA plant response rating, 0 to 100 scale ([6]; preemergence, 16 g a.i./ha): 44 | AMAPA plant response rating, 0 to 100 scale ([6]; preemergence, 31 g a.i./ha): 23 | AMAPA plant response rating, 0 to 100 scale ([6]; preemergence, 62 g a.i./ha): 61 | Plant response rating (0 to 100 scale) [6, 9]: 44 | Plant response rating (0 to 100 scale) [6, 10]: 23 | Plant response rating (0 to 100 scale) [6, 11]: 61 | Plant response rating (0 to 100 scale) [7, 8]: 0 | GLXMA plant response rating, 0 to 100 scale ([7]; postemergence, 8 g a.i./ha): 0 | GLXMA plant response rating, 0 to 100 scale ([7]; postemergence, 16 g a.i./ha): 0 | GLXMA plant response rating, 0 to 100 scale ([7]; postemergence, 31 g a.i./ha): 15 | GLXMA plant response rating, 0 to 100 scale ([7]; postemergence, 62 g a.i./ha): 16 | GLXMA plant response rating, 0 to 100 scale ([7]; preemergence, 8 g a.i./ha): 0 | GLXMA plant response rating, 0 to 100 scale ([7]; preemergence, 16 g a.i./ha): 0 | GLXMA plant response rating, 0 to 100 scale ([7]; preemergence, 31 g a.i./ha): 0 | GLXMA plant response rating, 0 to 100 scale ([7]; preemergence, 62 g a.i./ha): 0 | Plant response rating (0 to 100 scale) [7, 9]: 0 | Plant response rating (0 to 100 scale) [7, 10]: 0 | Plant response rating (0 to 100 scale) [7, 11]: 0
